Results from article PMC7450057, “Enhancing intracellular accumulation and target engagement of PROTACs with reversible covalent chemistry” (Nature Communications, 2020).
Where “and” joins values, the source holds several entries; their conditions need not be identical. Equal values may be shown once.

Key:
BTK = BTK (Mus musculus, UniProt P35991); test: BTK degradation in mouse B-cell lymphoma cell line derived from Eu-Myc mice; format: cell-based; parameters: endogenous in cells; host or cells: B cell lymphoma cell line derived from Eu-Myc mice; conditions: for BTK quantification (anti-BTK / anti-β-actin): Supplementary Figure 10, replicates, DMSO about 100
Procedure: MOLM-14 cell line was obtained from Dr. Conneely at Baylor College of Medicine, and the Mino cells were purchased from the American Type Culture Collection (ATCC, Cat. No. CRL-3000). Both cell lines were cultured in RPMI 1640 medium (Thermo Fisher Scientific, Cat. No. MT10040CV) supplemented with 10% fetal bovine serum (GE Healthcare, Cat. No. SH30071.03) and 1% Pen/Strep (Thermo Fisher Scientific, Cat. No. 15140163). The wild-type and C481S BTK XLA cell lines were gifts from Dr. Woyach at The Ohio State University and were cultured in RPMI 1640 medium with 15% fetal bovine serum, 1% Pen/Strep, and 1.0 µg/ml puromycin (Thermo Fisher Scientific, Cat. No. A1113803). HEK 293T/17 cells were purchased from ATCC (Cat. No. CRL-11268) were maintained in DMEM (Thermo Fisher Scientific, Cat. No. MT10013CV) with 10% fetal bovine serum and 1% Pen-Strep. The B cell lymphoma cell line derived from Eu-Myc mice was a gift from Dr. Yulin Li at Houston Methodist Research Institute and cultured in RPMI 1640 medium supplemented with 15% (v/v) fetal bovine serum (FBS), 100 U/mL penicillin, 100 μg/mL streptomycin, and 0.05 mM beta-mercaptoethanol and puromycin (1 μg/mL). Cells were grown at 37 °C with 5% CO2.
The collected cells and spleen tissues were lysed in RIPA lysis buffer (50 mM Tris-HCl, pH 7.4, 150 mM NaCl, 1% NP-40, 0.5% sodium deoxycholate, 0.1% SDS) supplemented with Halt™ Protease and Phosphatase Inhibitor Cocktail (Thermo Fisher Scientific, Cat. No. PI78440) immediately before use. Lysates were centrifuged at 15,000 × g for 10 min at 4 °C and the supernatant was quantified for total protein concentration using the Pierce BCA Protein Assay (Thermo Fisher Scientific, Cat. No. 23225). Thirty micrograms of protein were loaded onto sodium dodecyl sulfate−polyacrylamide gel for electrophoresis (Bio-Rad) and transferred onto PVDF membranes (Millipore, Cat. No. IPVH00010). […] Imaging was performed using the ECL Prime chemiluminescent western blot detection reagents (GE Healthcare, Cat. No. RPN2232) by visualization of the blots to X-Ray film or with an Imager (Kindle Biosciences, Cat. No. D1001). All western blots were subsequently processed and quantified with Imager software. Protein level was normalized to β-actin or GAPDH loading controls.

Mino = test: IC50 in MCL cell lines (Supplementary Table 2), Mino; conditions: for Cell Viability (%): Mino cells, replicate wells
full-length BTK protein = molecular target: T1, full-length BTK protein (Homo sapiens, UniProt Q06187); test: BTK binding assay (Kd, Eurofins DiscoverX); conditions: for Kd: full-length BTK, duplicates
T1 construct: Kd was measured using the full-length BTK protein by Eurofins DiscoverX; T7 phage fusion or DNA tag for qPCR (generic vendor protocol); purchased Eurofins DiscoverX
Procedure: The dissociation equilibrium constant Kd was measured using the full-length BTK protein by Eurofins DiscoverX according to the following protocol: kinase-tagged T7 phage strains were prepared in an E. coli host derived from the BL21 strain. E. coli were grown to log-phase and infected with T7 phage and incubated with shaking at 32 °C until lysis. The lysates were centrifuged and filtered to remove cell debris. The remaining kinases were produced in HEK-293 cells and subsequently tagged with DNA for qPCR detection. […] The liganded beads were blocked with excess biotin and washed with blocking buffer (SeaBlock (Pierce), 1% BSA, 0.05% Tween 20, 1 mM DTT) to remove unbound ligand and to reduce non-specific binding. […] Test compounds were prepared as 111X stocks in 100% DMSO. […] The compounds were then diluted directly into the assays such that the final concentration of DMSO was 0.9%. All reactions performed in polypropylene 384-well plate. Each was a final volume of 0.02 mL. […] The kinase concentration in the eluates was measured by qPCR. For kinase-binding constant determination, an 11-point 3-fold serial dilution of each test compound was prepared in 100% DMSO at 100x final test concentration and subsequently diluted to 1x in the assay (final DMSO concentration = 1%). […] Binding constants (Kd values) were calculated with a standard dose-response curve using the Hill equation: Response=Background+Signal−Background/1+KdHillSlope/Dose^HillSlope
The Hill Slope was set to −1. Curves were fitted using a non-linear least square fit with the Levenberg-Marquardt algorithm.

Rec-1 = test: IC50 in MCL cell lines (Supplementary Table 2), Rec-1; conditions: for Cell Viability (%): Rec-1 cells, replicate wells
[1] = BTK_-DTT, compound concentration 0.137 nM

T1 sequence (Q06187 whole entry, the tested form may be a part): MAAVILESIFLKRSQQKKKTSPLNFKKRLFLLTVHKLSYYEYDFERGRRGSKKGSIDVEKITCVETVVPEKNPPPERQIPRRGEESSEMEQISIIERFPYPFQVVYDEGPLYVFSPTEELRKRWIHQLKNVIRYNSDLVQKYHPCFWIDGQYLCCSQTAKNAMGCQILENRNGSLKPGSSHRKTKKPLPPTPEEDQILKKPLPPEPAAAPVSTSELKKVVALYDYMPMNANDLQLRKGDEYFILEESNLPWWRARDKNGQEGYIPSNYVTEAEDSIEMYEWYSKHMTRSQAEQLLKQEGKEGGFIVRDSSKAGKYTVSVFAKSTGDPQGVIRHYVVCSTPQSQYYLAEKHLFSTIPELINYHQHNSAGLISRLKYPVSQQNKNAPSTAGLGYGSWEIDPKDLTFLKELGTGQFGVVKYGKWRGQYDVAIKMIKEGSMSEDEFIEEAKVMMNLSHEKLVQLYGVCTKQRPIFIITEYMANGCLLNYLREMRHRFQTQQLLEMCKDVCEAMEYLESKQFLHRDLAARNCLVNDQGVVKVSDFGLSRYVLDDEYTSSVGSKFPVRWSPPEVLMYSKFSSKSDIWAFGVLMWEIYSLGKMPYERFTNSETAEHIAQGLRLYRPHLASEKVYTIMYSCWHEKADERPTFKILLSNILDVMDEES
Sequence of BTK (P35991 whole entry): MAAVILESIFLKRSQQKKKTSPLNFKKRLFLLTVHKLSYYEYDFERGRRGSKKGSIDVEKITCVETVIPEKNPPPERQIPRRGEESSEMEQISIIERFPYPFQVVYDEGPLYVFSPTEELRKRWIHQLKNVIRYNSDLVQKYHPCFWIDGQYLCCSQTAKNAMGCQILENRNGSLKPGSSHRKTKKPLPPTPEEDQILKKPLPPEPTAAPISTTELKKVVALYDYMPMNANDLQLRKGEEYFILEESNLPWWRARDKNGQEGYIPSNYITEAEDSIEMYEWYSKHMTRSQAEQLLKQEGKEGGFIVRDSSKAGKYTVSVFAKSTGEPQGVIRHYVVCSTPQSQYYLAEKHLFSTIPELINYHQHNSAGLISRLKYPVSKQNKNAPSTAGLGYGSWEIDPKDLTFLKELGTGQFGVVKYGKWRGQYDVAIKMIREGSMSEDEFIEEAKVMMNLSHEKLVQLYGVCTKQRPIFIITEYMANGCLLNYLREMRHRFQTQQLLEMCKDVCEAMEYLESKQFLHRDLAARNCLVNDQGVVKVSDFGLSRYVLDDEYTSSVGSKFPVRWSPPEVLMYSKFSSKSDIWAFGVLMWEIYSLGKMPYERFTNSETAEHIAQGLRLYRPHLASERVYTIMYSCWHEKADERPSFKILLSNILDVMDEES

For `CN(CCCNC(=O)CNc1cccc2c1C(=O)N(C1CCC(=O)NC1=O)C2=O)C(C)(C)C=C(C#N)C(=O)N1CCC[C@@H](n2nc(-c3ccc(Oc4ccccc4)cc3)c3c(N)ncnc32)C1` (stereo partly shown) [RC-1], the “BTK quantification (anti-BTK / anti-β-actin)” value (BTK; 8 nM) was 63.6968 and 56.9893, the “BTK quantification (anti-BTK / anti-β-actin)” value (BTK; 40 nM) was 41.0784 and 35.9122 and the “BTK quantification (anti-BTK / anti-β-actin)” value (BTK; 200 nM) was 29.8182 and 40.565. The “maximum BTK degradation” value (BTK; dosed up to 25 µM, 24 h) was 30–40%, the “Cell Viability (%)” value (Mino; 1.25E-06 M) was 39.6721% and 39.1711% and 38.89% and the “Cell Viability (%)” value (Mino; 1.56E-07 M) was 67.6678% and 68.2351% and 62.6329%. For the same compound, the “Cell Viability (%)” value (Mino; 2.50E-06 M) was 36.14% and 35.6851% and 33.7887%, the “Cell Viability (%)” value (Mino; 3.13E-07 M) was 53.7594% and 53.6077% and 49.7111% and the “Cell Viability (%)” value (Mino; 5.00E-06 M) was 32.4512% and 31.601% and 30.272%. The “Cell Viability (%)” value (Mino; 6.25E-07 M) was 49.0909% and 46.392% and 45.7071%, the “Cell Viability (%)” value (Mino; 7.81E-08 M) was 89.7818% and 79.7053% and 78.5229% and the IC50 (Mino; Mino, triplicates) was 400 nM. For the same compound, the Signal (full-length BTK protein; BTK_+DTT, compound concentration 0.00491 nM) was 2.20E-05 and 2.17E-05, the Signal (full-length BTK protein; BTK_+DTT, compound concentration 0.0147 nM) was 1.92E-05 and 1.81E-05 and the Signal (full-length BTK protein; BTK_+DTT, compound concentration 0.0442 nM) was 2.14E-05 and 1.73E-05. The Signal (full-length BTK protein; BTK_+DTT, compound concentration 0.133 nM) was 2.05E-05 and 2.18E-05, the Signal (full-length BTK protein; BTK_+DTT, compound concentration 0.398 nM) was 2.41E-05 and 2.16E-05 and the Signal (full-length BTK protein; BTK_+DTT, compound concentration 1.19 nM) was 1.65E-05 and 1.58E-05. For the same compound, the Signal (full-length BTK protein; BTK_+DTT, compound concentration 3.58 nM) was 1.59E-05 and 1.74E-05, the Signal (full-length BTK protein; BTK_+DTT, compound concentration 10.7 nM) was 1.27E-05 and 1.43E-05 and the Signal (full-length BTK protein; BTK_+DTT, compound concentration 32.2 nM) was 8.15E-06 and 9.04E-06. For the same compound, the Signal (full-length BTK protein; BTK_+DTT, compound concentration 96.7 nM) was 2.36E-06 and 3.19E-06, the Signal (full-length BTK protein; BTK_+DTT, compound concentration 290 nM) was 6.97E-07 and 7.79E-07 and the Signal (full-length BTK protein; BTK_-DTT, compound concentration 0.0152 nM) was 1.51E-05 and 1.47E-05. The Signal (full-length BTK protein; BTK_-DTT, compound concentration 0.0457 nM) was 1.49E-05 and 1.51E-05, the Signal (full-length BTK protein; [1]) was 1.65E-05 and 2.03E-05 and the Signal (full-length BTK protein; BTK_-DTT, compound concentration 0.412 nM) was 1.54E-05 and 1.43E-05. For the same compound, the Signal (full-length BTK protein; BTK_-DTT, compound concentration 1.23 nM) was 1.12E-05 and 1.17E-05, the Signal (full-length BTK protein; BTK_-DTT, compound concentration 3.7 nM) was 1.02E-05 and 1.17E-05 and the Signal (full-length BTK protein; BTK_-DTT, compound concentration 11.1 nM) was 6.96E-06 and 6.70E-06. For the same compound, the Signal (full-length BTK protein; BTK_-DTT, compound concentration 33.3 nM) was 2.36E-06 and 3.11E-06, the Signal (full-length BTK protein; BTK_-DTT, compound concentration 100 nM) was 5.28E-07 and 7.20E-07 and the Signal (full-length BTK protein; BTK_-DTT, compound concentration 300 nM) was 2.64E-07 and 1.61E-07. For the same compound, the Kd (full-length BTK protein; absence of DTT in the buffer) was 6.4 nM, the IC50 (Rec-1; Rec-1, triplicates) was 4100 nM and the “Cell Viability (%)” value (Rec-1; 1.25E-06 M) was 86.4761% and 87.1335% and 88.5619%. For the same compound, the “Cell Viability (%)” value (Rec-1; 1.56E-07 M) was 110.78% and 108.392% and 108.404%, the “Cell Viability (%)” value (Rec-1; 2.50E-06 M) was 70.381% and 67.6766% and 67.9066% and the “Cell Viability (%)” value (Rec-1; 3.13E-07 M) was 100.052% and 101.66% and 95.2827%. The “Cell Viability (%)” value (Rec-1; 5.00E-06 M) was 39.6222% and 42.2011% and 40.0645%, the “Cell Viability (%)” value (Rec-1; 6.25E-07 M) was 96.6812% and 94.3055% and 92.2914% and the “Cell Viability (%)” value (Rec-1; 7.81E-08 M) was 102.045% and 105.031% and 106.253%.

With `CN(CCCNC(=O)CNc1cccc2c1C(=O)N(C1CCC(=O)NC1=O)C2=O)CCCC(=O)N1CCCC(n2nc(-c3ccc(Oc4ccccc4)cc3)c3c(N)ncnc32)C1` (stereo not shown) [RNC-1] the “BTK quantification (anti-BTK / anti-β-actin)” value (BTK; 8 nM) was 97.1575 and 95.3789, the “BTK quantification (anti-BTK / anti-β-actin)” value (BTK; 40 nM) was 69.0679 and 73.2452 and the “BTK quantification (anti-BTK / anti-β-actin)” value (BTK; 200 nM) was 33.5661 and 27.9942. The Signal (full-length BTK protein; BTK_+DTT, compound concentration 0.0457 nM) was 1.67E-05 and 2.04E-05, the Signal (full-length BTK protein; BTK_+DTT, compound concentration 0.137 nM) was 2.07E-05 and the Signal (full-length BTK protein; BTK_+DTT, compound concentration 0.412 nM) was 1.78E-05 and 1.97E-05. For the same compound, the Signal (full-length BTK protein; BTK_+DTT, compound concentration 1.23 nM) was 1.66E-05 and 1.94E-05, the Signal (full-length BTK protein; BTK_+DTT, compound concentration 3.7 nM) was 9.43E-06 and 1.17E-05 and the Signal (full-length BTK protein; BTK_+DTT, compound concentration 11.1 nM) was 5.40E-06 and 5.82E-06. For the same compound, the Signal (full-length BTK protein; BTK_+DTT, compound concentration 33.3 nM) was 1.59E-06 and 1.81E-06, the Signal (full-length BTK protein; BTK_+DTT, compound concentration 100 nM) was 4.37E-07 and 5.02E-07 and the Signal (full-length BTK protein; BTK_+DTT, compound concentration 300 nM) was 2.01E-07 and 2.30E-07. For the same compound, the Signal (full-length BTK protein; BTK_+DTT, compound concentration 900 nM) was 1.47E-07 and 2.72E-07, the Signal (full-length BTK protein; BTK_+DTT, compound concentration 2700 nM) was 1.45E-07 and 2.02E-07 and the Signal (full-length BTK protein; [1]) was 2.06E-05. The Kd (full-length BTK protein; standard assay buffer in the presence of DTT (6 mM) (DiMe compounds: BTK_+DTT per Supplementary Data 1)) was 4.7 nM.
